Common to all, as to type: cell-based
In assay [1] the target is T1, human TLR7 (Homo sapiens, UniProt Q9NYK1).
T1 construct: host or cells: HEK-Blue cells (HEK293-derived reporter line)
T1 sequence (Q9NYK1 27-1049): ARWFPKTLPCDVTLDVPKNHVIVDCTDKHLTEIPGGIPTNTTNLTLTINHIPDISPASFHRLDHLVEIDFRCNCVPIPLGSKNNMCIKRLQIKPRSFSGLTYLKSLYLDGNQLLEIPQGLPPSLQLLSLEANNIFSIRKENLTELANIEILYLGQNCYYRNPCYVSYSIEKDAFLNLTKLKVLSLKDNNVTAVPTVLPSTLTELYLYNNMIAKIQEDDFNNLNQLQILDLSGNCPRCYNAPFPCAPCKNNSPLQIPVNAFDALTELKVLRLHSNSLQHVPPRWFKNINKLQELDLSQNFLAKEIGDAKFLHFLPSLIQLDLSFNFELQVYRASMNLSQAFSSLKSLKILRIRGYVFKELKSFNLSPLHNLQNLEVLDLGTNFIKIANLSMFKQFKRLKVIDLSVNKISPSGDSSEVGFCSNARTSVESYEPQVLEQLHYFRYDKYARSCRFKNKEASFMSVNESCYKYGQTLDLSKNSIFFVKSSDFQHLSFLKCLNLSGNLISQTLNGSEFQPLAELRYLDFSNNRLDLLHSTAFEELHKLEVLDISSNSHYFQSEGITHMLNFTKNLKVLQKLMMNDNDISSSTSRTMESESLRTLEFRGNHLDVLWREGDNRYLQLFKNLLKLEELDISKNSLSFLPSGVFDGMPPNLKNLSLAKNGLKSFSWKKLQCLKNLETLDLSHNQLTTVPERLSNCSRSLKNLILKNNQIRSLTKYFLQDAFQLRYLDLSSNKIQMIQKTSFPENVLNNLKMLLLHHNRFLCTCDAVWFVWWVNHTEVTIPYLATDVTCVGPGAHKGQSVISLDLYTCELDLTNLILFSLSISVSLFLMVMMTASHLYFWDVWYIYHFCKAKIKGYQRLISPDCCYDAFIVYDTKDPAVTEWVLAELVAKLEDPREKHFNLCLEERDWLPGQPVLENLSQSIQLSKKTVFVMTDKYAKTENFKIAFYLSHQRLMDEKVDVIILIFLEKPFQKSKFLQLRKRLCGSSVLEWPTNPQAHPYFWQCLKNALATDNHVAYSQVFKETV
Put plainly: TLR7 inhibition reporter assay (HEK-Blue cells, SEAP reporter, gardiquimod stimulation). The settings on record: HEK-Blue cells overexpressing human TLR7, SEAP reporter, gardiquimod 7.5 μM. An outline of the steps: (§1)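 Percent inhibition of agonist-induced SEAP secretion in HEK-Blue cells after 22 h at 37 °C. Stimuli: 7.5 μM gardiquimod, 15.9 μM R848, 5 nM ODN2006 for TLR7, TLR8 and TLR9, added after 30 min compound exposure over a 0.05 nM–50 μM range.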
On the technique in general: Reporter assays use an easily measured gene product as a stand-in for the process of interest.

Assay [2] has as its target T2, human TLR8 (Homo sapiens, UniProt Q9NR97).
T2 construct: host or cells: HEK-Blue cells (HEK293-derived reporter line)
T2 sequence (Q9NR97 27-1041): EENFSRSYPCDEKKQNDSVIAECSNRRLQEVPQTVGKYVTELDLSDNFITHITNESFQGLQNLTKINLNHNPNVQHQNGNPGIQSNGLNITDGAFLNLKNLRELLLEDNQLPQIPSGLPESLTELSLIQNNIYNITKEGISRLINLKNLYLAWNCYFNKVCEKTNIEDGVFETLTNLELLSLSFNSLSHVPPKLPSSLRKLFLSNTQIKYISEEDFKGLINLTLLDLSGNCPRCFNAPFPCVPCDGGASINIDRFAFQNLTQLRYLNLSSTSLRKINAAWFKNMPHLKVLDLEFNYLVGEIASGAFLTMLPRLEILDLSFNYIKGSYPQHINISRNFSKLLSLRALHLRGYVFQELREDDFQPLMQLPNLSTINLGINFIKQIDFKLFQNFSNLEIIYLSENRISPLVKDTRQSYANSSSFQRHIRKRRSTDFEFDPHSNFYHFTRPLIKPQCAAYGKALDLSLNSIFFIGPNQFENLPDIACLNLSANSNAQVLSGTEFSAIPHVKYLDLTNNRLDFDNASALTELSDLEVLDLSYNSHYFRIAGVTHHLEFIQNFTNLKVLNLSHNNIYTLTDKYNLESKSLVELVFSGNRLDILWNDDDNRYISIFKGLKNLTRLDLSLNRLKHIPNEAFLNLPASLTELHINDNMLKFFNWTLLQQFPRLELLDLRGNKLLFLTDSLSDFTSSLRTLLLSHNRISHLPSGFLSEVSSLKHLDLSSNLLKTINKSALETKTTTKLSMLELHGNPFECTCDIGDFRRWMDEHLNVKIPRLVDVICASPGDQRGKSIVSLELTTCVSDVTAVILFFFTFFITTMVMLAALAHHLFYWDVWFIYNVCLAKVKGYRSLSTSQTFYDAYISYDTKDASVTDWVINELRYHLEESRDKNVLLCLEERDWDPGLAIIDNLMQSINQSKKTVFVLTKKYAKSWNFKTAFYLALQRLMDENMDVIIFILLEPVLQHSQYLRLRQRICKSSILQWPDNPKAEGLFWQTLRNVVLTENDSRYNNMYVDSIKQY
Nature of the assay: TLR8 inhibition reporter assay (HEK-Blue cells, SEAP reporter, R848 stimulation). As to conditions: HEK-Blue cells overexpressing human TLR8, SEAP reporter, R848 15.9 μM. An outline of the steps: as §1

In assay [3] the target is T3, human TLR9 (Homo sapiens, UniProt Q9NR96).
T3 construct: host or cells: HEK-Blue cells (HEK293-derived reporter line)
T3 sequence (Q9NR96 26-1032): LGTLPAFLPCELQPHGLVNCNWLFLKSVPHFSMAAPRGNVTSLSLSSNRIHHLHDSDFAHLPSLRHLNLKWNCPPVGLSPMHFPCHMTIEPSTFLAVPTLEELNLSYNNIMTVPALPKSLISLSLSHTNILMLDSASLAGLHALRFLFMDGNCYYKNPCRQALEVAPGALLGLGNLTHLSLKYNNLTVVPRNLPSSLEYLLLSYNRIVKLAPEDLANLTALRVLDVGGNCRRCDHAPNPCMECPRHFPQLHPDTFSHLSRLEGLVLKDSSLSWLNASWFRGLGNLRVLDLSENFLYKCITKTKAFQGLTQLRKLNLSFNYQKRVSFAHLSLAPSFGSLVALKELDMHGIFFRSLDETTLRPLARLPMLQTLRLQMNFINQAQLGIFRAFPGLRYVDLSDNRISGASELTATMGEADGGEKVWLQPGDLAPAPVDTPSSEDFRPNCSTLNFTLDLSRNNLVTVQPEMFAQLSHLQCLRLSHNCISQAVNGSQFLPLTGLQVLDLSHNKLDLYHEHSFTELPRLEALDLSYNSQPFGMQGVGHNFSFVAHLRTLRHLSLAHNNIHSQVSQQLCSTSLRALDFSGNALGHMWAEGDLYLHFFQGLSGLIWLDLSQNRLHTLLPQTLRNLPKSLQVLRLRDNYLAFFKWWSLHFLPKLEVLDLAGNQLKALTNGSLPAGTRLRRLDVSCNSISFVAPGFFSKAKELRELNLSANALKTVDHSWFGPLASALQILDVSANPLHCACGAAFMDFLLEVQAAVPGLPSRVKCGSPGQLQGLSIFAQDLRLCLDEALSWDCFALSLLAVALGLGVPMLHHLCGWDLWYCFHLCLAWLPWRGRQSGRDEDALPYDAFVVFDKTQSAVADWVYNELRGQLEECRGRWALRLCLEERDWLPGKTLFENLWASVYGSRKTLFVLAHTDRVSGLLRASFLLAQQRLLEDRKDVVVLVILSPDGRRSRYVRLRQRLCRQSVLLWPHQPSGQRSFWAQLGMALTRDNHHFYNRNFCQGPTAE
Put plainly: TLR9 inhibition reporter assay (HEK-Blue cells, SEAP reporter, ODN2006 stimulation). The settings on record: HEK-Blue cells overexpressing human TLR9, SEAP reporter, ODN2006 5 nM. The gist of the method: as §1

Results on 13 molecules are retold here after patent US11739098B2 (BRISTOL-MYERS SQUIBB COMPANY, priority 2017, dated 2023).

Each structure is given as a SMILES string. Some results are limits rather than exact numbers.

Broadly, the IC50 is the concentration at which inhibition is half-maximal. Higher therefore signals lower potency. On to `CC(C)c1c(-c2ccnc3[nH]ncc23)[nH]c2ccc(C3CCN(C4C[C@H]5CC[C@@H](C4)N5C)CC3)cc12` (stereo partly drawn) [Example 829, 4-(3-isopropyl-5-(1-((1R,5S)-8-methyl-8-azabicyclo[3.2.1]octan-3-yl)piperidin-4-yl)-1H-indol-2-yl)-1H-pyrazolo[3,4-b]pyridine], for which the IC50 in assay [1] is under 100 nM; in assay [2], under 100 nM; in assay [3] it was 100 to 1000 nM.

In the case of `Cc1nc2ccc(-c3[nH]c4ccc(C5CCNCC5)cc4c3C(C)C)cc2o1` [Example 6, 6-(3-isopropyl-5-(piperidin-4-yl)-1H-indol-2-yl)-2-methylbenzo[d]oxazole], the IC50 in assay [1] is under 100 nM; in assay [2], 100 to 1000 nM; in assay [3] it was 1000 to 50000 nM.

In the case of `CNC(=O)CN1CCC(c2ccc3[nH]c(-c4cc(C)c5nnnn5c4)c(C(C)C)c3c2)CC1` [Example 312, 2-(4-(3-isopropyl-2-(8-methyltetrazolo[1,5-a]pyridin-6-yl)-1H-indol-5-yl)piperidin-1-yl)-N-methylacetamide], the IC50 was under 100 nM in assay [1], under 100 nM in assay [2] and 1000 to 50000 nM in assay [3].

Turning to `Cc1cn2cc(-c3[nH]c4ccc(C5CCN(CC(=O)N(C)C)CC5)cc4c3C(C)C)c(C)cc2n1` [Example 375, 2-(4-(2-(2,7-dimethylimidazo[1,2-a]pyridin-6-yl)-3-isopropyl-1H-indol-5-yl)piperidin-1-yl)-N,N-dimethylacetamide], the results for the IC50 in assay [1], in assay [2] and in assay [3] were under 100 nM, 100 to 1000 nM and under 100 nM, respectively.

As for `CCc1c(-c2ccnc3[nH]ncc23)[nH]c2ccc(C3CCN(Cc4cnc(N)s4)CC3)cc12` [Example 931, 5-((4-(3-ethyl-2-(1H-pyrazolo[3,4-b]pyridin-4-yl)-1H-indol-5-yl)piperidin-1-yl)methyl)thiazol-2-amine], the IC50 in assay [1], in assay [2] and in assay [3] was over 50000 nM each time.

For `CCCN1CCC(c2ccc3[nH]c(-c4cc(C)c5ncn(C)c5c4)c(C(C)C)c3c2)CC1` [Example 954, 6-(3-isopropyl-5-(1-propylpiperidin-4-yl)-1H-indol-2-yl)-1,4-dimethyl-1H-benzo[d]imidazole], the IC50 in assay [1] is under 100 nM; in assay [2], under 100 nM; in assay [3], 100 to 1000 nM.

Turning to `Cc1c(-c2ccnc3[nH]ccc23)[nH]c2ccc(C3CCN(C4CCN(C)CC4)CC3)cc12` [Example 810, 4-(3-methyl-5-(1′-methyl-[1,4′-bipiperidin]-4-yl)-1H-indol-2-yl)-1H-pyrrolo[2,3-b]pyridine], the IC50 in assay [1] is under 100 nM; in assay [2], under 100 nM; in assay [3], 100 to 1000 nM.

For the molecule `Cc1ccnc2c1c(-c1[nH]c3ccc(C4CCN(CC(=O)N(C)C)CC4)cc3c1C(C)C)cn2C` [Example 285, 2-(4-(2-(1,4-dimethyl-1H-pyrrolo[2,3-b]pyridin-3-yl)-3-isopropyl-1H-indol-5-yl)piperidin-1-yl)-N,N-dimethylacetamide], the IC50 is under 100 nM in assay [1], under 100 nM in assay [2] and 1000 to 50000 nM in assay [3].

For the molecule `Cc1nc2cc(-c3[nH]c4ccc(C5CCN(C(=O)CN(C)C)CC5)cc4c3C(C)C)ccn2n1` [Example 538, 2-(dimethylamino)-1-(4-(3-isopropyl-2-(2-methyl-[1,2,4]triazolo[1,5-a]pyridin-7-yl)-1H-indol-5-yl)piperidin-1-yl)ethan-1-one], the concentration for half-maximal inhibition (IC50) in assay [1] was under 100 nM; in assay [2], 100 to 1000 nM; in assay [3] it was 1000 to 50000 nM.

In the case of `Cc1nc(CN2CCC(c3ccc4[nH]c(-c5ccnc6[nH]ncc56)c(C(C)C)c4c3)CC2)c2ccccn12` [Example 868, 4-(3-isopropyl-5-(1-((3-methylimidazo[1,5-a]pyridin-1-yl)methyl)piperidin-4-yl)-1H-indol-2-yl)-1H-pyrazolo[3,4-b]pyridine], the IC50 in assay [1] is under 100 nM; in assay [2], under 100 nM; in assay [3], 100 to 1000 nM.

Consider `Cc1nn2ccc(-c3[nH]c4ccc(C5CCN(CC(=O)N(C)C)CC5)cc4c3C(C)C)cc2c1F` [Example 399, 2-(4-(2-(3-fluoro-2-methylpyrazolo[1,5-a]pyridin-5-yl)-3-isopropyl-1H-indol-5-yl)piperidin-1-yl)-N,N-dimethylacetamide], for which the IC50 in assay [1] was under 100 nM; in assay [2], 1000 to 50000 nM; in assay [3], 1000 to 50000 nM.

For `CC(C)c1c(-c2ccnc3[nH]c(=O)oc23)[nH]c2ccc(C3CCNCC3)cc12` [Example 58, 7-(3-isopropyl-5-(piperidin-4-yl)-1H-indol-2-yl)oxazolo[4,5-b]pyridin-2(3H)-one], the IC50 in assay [1], in assay [2] and in assay [3] was 1000 to 50000 nM throughout.

Consider `Cc1cc(-c2[nH]c3ccc(C4CCN(C(=O)CCN(C)C)CC4)cc3c2C(C)C)cn2nnnc12` [Example 620, 3-(dimethylamino)-1-(4-(3-isopropyl-2-(8-methyltetrazolo[1,5-a]pyridin-6-yl)-1H-indol-5-yl)piperidin-1-yl)propan-1-one], for which the results for the IC50 in assay [1], in assay [2] and in assay [3] were under 100 nM, under 100 nM and 1000 to 50000 nM, respectively.
